Data as given in publication PMC11602654 (The Journal of General Physiology, 2024).

Assays:
[1] = molecular target: T1, β3(Q64R+G127T) homomeric GABAA receptor (Homo sapiens, UniProt P28472, G152T/Q89R); experiment: two-electrode voltage clamp, concentration-response; assay type: cell-based
T1 sequence (P28472 26-473 Q89R/G152T): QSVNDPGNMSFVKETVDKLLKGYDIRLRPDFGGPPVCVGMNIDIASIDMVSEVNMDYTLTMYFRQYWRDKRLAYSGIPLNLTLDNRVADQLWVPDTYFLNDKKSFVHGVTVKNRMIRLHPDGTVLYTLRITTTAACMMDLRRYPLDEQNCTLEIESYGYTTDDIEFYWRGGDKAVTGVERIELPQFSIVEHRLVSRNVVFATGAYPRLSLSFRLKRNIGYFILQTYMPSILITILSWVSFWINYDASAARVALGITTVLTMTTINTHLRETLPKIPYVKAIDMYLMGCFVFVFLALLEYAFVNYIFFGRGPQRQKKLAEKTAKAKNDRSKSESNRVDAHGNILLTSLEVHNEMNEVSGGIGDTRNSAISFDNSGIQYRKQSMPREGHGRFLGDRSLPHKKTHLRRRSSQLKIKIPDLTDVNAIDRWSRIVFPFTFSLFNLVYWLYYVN

α1β2γ2L GABAA receptor = α1β2γ2L GABAA receptor (Rattus norvegicus, UniProt P62813+P63138); experiment: as above; assay type: cell-based

Row | SMILES | EC50 [1] [mM] | EC50 (α1β2γ2L GABAA receptor) [mM]
1 | NCCc1c[nH]cn1 [histamine] | 9 ± 0.5 | –
2 | O=S(=O)(O)C1CCNCC1 [P4S, piperidine-4-sulfonic acid] | – | 0.033 ± 0.012
